Test results taken from US20030180291A1, “Method of inactivating viruses” (priority 1998, published 2003).
Several values for one entry are separate records, joined by “and”; a condition that tells them apart may be missing. Equal values may be shown once.

Key:
[1] = tested on: Vesicular Stomatitis virus (VSV); assay type: cell-based
[2] = tested on: Vesicular Stomatitis (VSV, strain Indiana)
[3] = tested on: PseudoRabies virus (PSR, strain Bartha K61)
[4] = tested on: Humane Immunodeficiency Virus Type 1 (HIV-1, strain HTLV-IIIb)
[5] = tested on: humane erythrocytes; assay type: cell-based, human

Cc1ncc(COP(=O)(O)O)c(C=O)c1O [pyridoxal phosphate]
effect of light exposure on virus inactivation in absence of sensitizer [1]: no effect at all

Cc1cc(=[N+](C)C)cc2sc3cc(N(C)C)cc(C)c3nc1-2.[Cl-] [DMMB, dimethyl-methylene blue]
effective [DMMB] [2]: 4 µM and 5 µM
effective [DMMB] [3]: 4 µM
effective [DMMB] [4]: 8 µM

OCCN(CCO)c1nc(N2CCCCC2)c2nc(N(CCO)CCO)nc(N3CCCCC3)c2n1 [dipyridamol]
effect of light exposure on virus inactivation in absence of sensitizer [1]: no effect at all
haemolysis after the erythrocytes had been stored for 12 days at 4° C. [5]: very strong reduction
effect of dipyridamol on the effective concentration of sensitizer [2]: did not, or only barely appear to affect
effect of dipyridamol on the effective concentration of sensitizer [3]: did not, or only barely appear to affect
effect of dipyridamol on the effective concentration of sensitizer [4]: did not, or only barely appear to affect
